Results on one molecule are retold here after paper PMC4310350 (Drug Design, Development and Therapy, 2015).

The conditions of data set [1]: 3-hour incubation in rat plasma; cited from earlier work.
In data set [2] the target is P-gp (Homo sapiens, UniProt P08183). The experiment in a line: A-to-B and B-to-A transport in LLC-PK1 cells overexpressing P-gp. It counts as in vitro ADME. The following applies: P-gp (MDR1), efflux.
The target in data set [3] is T1, BCRP (Homo sapiens, UniProt Q9UNQ0).
T1 sequence (Q9UNQ0 1-655): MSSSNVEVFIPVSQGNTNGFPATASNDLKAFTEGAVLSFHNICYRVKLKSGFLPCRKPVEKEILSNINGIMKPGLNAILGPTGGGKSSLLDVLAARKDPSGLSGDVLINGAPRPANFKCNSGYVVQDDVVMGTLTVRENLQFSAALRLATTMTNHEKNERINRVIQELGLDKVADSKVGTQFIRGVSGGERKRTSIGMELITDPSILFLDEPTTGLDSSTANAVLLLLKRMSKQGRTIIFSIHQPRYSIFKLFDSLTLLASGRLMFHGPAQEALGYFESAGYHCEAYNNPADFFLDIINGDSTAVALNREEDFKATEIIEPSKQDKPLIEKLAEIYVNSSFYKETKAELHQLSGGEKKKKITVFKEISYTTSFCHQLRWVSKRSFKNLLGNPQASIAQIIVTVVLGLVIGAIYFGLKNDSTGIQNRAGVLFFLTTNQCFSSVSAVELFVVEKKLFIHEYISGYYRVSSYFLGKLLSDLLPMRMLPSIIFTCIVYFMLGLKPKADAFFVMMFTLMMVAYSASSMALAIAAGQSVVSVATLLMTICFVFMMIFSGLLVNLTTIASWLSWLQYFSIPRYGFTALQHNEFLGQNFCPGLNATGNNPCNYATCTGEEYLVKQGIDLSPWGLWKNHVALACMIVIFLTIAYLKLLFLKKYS
The experiment in a line: Inhibitory effect of catalposide on BCRP transport activity. The note with it: probe 0.1 μM [3H]ES, catalposide 1–100 μM. Type of data set: in vitro ADME.

Data set [4] concerns the target T2, OATP1B3 (Homo sapiens, UniProt Q9NPD5).
T2 sequence (Q9NPD5 1-702): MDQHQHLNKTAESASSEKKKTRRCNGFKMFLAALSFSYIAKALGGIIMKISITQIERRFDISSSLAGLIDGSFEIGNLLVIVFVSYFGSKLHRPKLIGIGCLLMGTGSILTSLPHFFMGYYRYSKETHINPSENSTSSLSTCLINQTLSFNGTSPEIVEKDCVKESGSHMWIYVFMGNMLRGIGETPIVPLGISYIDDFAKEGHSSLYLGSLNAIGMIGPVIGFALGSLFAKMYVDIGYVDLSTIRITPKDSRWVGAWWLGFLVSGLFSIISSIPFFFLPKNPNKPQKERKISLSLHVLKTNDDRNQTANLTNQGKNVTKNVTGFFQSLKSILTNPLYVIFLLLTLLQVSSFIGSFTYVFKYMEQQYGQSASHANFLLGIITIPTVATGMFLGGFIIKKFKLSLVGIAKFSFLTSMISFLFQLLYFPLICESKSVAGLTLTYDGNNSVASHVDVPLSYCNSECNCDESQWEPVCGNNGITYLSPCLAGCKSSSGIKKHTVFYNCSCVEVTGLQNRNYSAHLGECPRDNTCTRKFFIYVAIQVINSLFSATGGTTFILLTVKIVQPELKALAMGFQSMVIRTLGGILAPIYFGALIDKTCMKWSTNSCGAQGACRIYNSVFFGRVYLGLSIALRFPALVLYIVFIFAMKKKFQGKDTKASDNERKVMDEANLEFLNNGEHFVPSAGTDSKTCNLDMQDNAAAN
The experiment in a line: Uptake in HEK293 cells overexpressing OATP1B3. The note with it: OATP1B3-mediated uptake. Type of data set: in vitro ADME.

For data set [5] the following is noted: rats, cited from earlier work.
For data set [6] the following is noted: human liver microsomes in the presence of NADPH; cited from earlier work. (Liver microsomes are a subcellular fraction often used to study metabolism.)
Data set [7] addresses T3, OAT1 (Homo sapiens, UniProt Q4U2R8).
T3 sequence (Q4U2R8 1-563): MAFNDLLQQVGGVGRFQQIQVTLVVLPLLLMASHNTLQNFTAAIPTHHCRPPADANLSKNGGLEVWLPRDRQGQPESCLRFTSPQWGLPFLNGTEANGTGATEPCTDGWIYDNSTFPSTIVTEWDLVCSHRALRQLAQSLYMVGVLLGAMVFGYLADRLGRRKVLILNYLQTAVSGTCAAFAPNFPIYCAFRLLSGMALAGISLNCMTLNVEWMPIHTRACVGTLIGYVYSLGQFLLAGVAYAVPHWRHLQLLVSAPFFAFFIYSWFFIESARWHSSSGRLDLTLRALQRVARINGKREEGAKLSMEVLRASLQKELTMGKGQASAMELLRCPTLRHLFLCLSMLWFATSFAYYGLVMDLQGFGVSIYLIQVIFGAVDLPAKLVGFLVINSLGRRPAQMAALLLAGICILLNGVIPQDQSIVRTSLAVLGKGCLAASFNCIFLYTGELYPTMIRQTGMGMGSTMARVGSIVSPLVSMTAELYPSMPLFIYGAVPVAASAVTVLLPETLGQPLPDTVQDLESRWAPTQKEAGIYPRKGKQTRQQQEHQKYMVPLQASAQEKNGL
As to the kind of experiment: Inhibitory effect of catalposide on OAT1 transport activity. The note with it: probe 1 μM PAH, catalposide 0–100 μM. Type of data set: in vitro ADME.

For data set [8] the following is noted: 3-hour incubation in human plasma; cited from earlier work.

Structures are written as SMILES. Entries after “also recorded” stand apart in the source; their conditions may differ. Read-outs that look alike come from different tables or passages of the source.

P-gp, sequence (P08183 whole entry): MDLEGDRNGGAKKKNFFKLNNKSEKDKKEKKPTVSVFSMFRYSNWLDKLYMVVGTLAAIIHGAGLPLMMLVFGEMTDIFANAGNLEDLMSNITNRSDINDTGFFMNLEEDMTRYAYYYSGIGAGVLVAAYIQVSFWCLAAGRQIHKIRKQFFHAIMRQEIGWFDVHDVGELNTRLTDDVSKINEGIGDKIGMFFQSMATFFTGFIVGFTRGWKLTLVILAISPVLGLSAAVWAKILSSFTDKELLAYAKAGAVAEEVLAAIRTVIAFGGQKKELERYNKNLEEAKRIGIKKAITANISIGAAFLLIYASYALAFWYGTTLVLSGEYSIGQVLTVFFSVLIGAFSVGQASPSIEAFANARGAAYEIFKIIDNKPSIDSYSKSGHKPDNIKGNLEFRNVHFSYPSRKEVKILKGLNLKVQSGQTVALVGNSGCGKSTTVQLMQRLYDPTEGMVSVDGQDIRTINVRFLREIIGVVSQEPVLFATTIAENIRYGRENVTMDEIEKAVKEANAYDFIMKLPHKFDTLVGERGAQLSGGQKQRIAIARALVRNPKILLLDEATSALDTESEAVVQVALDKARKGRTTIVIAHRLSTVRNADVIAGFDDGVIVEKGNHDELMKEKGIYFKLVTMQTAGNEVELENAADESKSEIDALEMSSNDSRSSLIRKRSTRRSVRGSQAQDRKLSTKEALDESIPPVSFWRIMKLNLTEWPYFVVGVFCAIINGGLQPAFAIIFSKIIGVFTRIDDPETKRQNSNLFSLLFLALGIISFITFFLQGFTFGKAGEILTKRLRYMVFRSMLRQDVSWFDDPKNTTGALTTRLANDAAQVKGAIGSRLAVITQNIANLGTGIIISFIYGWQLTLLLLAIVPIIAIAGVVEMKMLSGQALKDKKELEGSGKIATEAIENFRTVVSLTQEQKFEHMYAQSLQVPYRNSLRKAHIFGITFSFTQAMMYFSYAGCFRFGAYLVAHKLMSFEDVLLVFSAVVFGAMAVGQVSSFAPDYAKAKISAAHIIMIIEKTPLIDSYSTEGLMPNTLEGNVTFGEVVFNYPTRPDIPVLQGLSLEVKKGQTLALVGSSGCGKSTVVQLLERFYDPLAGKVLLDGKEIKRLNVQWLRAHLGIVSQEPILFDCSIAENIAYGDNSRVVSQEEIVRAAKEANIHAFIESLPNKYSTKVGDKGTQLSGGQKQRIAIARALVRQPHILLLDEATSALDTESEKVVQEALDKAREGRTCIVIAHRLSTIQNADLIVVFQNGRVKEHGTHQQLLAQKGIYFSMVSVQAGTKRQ

Turning to `O=C(O[C@H]1[C@@H]2C=CO[C@@H](O[C@@H]3O[C@H](CO)[C@@H](O)[C@H](O)[C@H]3O)[C@@H]2[C@@]2(CO)O[C@@H]12)c1ccc(O)cc1` [catalposide], in data set [1], the Stability result is “remained stable”. For the same molecule, in data set [2], the Substrate result is “not involved; also recorded: not a substrate”. In addition, the Inhibitor result in data set [3] is “did not significantly inhibit”. The Hill coefficient n in data set [4] is given as ~1. Moreover, the “Recovery in the urine (unchanged form)” value in data set [5] (intravenous 10 mg/kg, % of dose) is on record as 9.9%. In data set [5] (intravenous), the Distribution volume is 2657.2 ± 1396.9 mL/kg, the Nonrenal clearance is 88.2 mL/min/kg, the Renal clearance was 8.47 mL/min/kg and the Systemic clearance was 96.7 ± 44.2 mL/min/kg. For the same molecule, the Terminal half-life in data set [5] (intravenous) is 19.3 ± 9.5 min. Also, the Stability result in data set [6] is “remained stable”. Besides, the Inhibitor result in data set [7] is listed as “did not significantly inhibit”. Besides, in data set [8], the Stability entry is listed as “remained stable”.
